Experimental data published in PubChem BioAssay AID1996.
In brackets after ≈: the same amount, converted by molar mass.

conditions: buffer; pH 7.4; 200.0 µM

Row | solubility kinetic | Compound
1 | 7.3 µg/mL (≈ 21.2 µM) | O=C(CN1CCOCC1)Nc1ccc([N+](=O)[O-])cc1Br
2 | 42.6 µg/mL (≈ 125 µM) | O=C(c1cccc(Cl)c1)N1CCC(c2nc3ccccc3[nH]2)CC1
3 | > 45.2 µg/mL | COC(=O)C1CCN(Cc2nnc(-c3ccccc3)o2)CC1
4 | 7 µg/mL (≈ 27.2 µM) | Clc1ccccc1-c1nc(-c2ccncc2)no1
5 | 45.2 µg/mL (≈ 131 µM) | CC(C)CN1CCC(CN(C)Cc2nc(-c3cnccn3)no2)CC1
6 | 5.1 µg/mL (≈ 13.1 µM) | CCN1CCN(c2ccc(NC(=O)COc3ccc(Cl)cc3C)cc2)CC1
7 | > 39.4 µg/mL | CC(=O)c1c(C)[nH]c(C(=O)N2CCCC(C)C2)c1C (stereo not given)
8 | > 51.7 µg/mL | CC(=O)c1cccc(OCC(=O)N(C)CC(=O)NCc2ccco2)c1
9 | > 51.4 µg/mL | CCOCC(=O)Nc1ccc(S(=O)(=O)NCC2CCCO2)cc1 (stereo not given)
10 | > 51.3 µg/mL | O=C(COC(=O)c1ccccc1Br)NCC1CCCO1 (stereo not given)
11 | 28.2 µg/mL (≈ 130 µM) | CC(C)OC(=O)/C(C#N)=C\c1cccnc1
12 | > 47.5 µg/mL | NC(=O)C1CCN(S(=O)(=O)Cc2ccccc2Cl)CC1
13 | > 46.6 µg/mL | COCCSc1nc(N)c2c3c(sc2n1)CN(C)CC3
14 | 9.6 µg/mL (≈ 34.6 µM) | CC(Cl)C(=O)c1ccc2c(c1)CCN2C(=O)C1CC1 (stereo not given)
15 | > 42.4 µg/mL | Cc1ccsc1C(=O)NCC(C)(C)N1CCOCC1
16 | > 47.9 µg/mL | Cc1ccc(S(=O)(=O)NCC(=O)Nc2cccnc2)cc1C
17 | 45.9 µg/mL (≈ 144 µM) | COc1ccc2[nH]c(C)c(C(=O)CN(C)CC3OCCO3)c2c1
18 | > 48.8 µg/mL | Cc1cccc(NC(=S)N2CCCCC2c2cccnc2)c1C (stereo not given)
19 | 7.7 µg/mL (≈ 19.5 µM) | Cn1c(OCc2cccnc2)nc2c1c(=O)n(Cc1ccc(F)cc1)c(=O)n2C

Continued, compound first:

Row | Compound | solubility kinetic
20 | Cc1ccc(NC(=O)C2CC(=O)N(C(C)c3ccccc3)C2)cc1 (stereo not given) | > 48.4 µg/mL
21 | CCOc1ccc(N/C=C/C(=O)c2cc(OC)c(OC)c(OC)c2)cc1 | < 0.8 µg/mL
22 | COc1ccc2[nH]cc(S(=O)(=O)c3ccc(C)cc3)c2c1 | 30.2 µg/mL (≈ 100 µM)
23 | CC(=O)OCC[N+](C)(C)C.[O-][Cl+3]([O-])([O-])[O-] | > 36.8 µg/mL
24 | COc1ccccc1NC(=O)c1ccccc1C(=O)N(C)Cc1ccccc1 | 1.3 µg/mL (≈ 3.47 µM)
25 | CCOC(=O)CCNC(=O)CCNC(=O)C(c1ccccc1)c1ccccc1 | > 57.4 µg/mL
26 | CSc1nsc(SCC(=O)Nc2ccc(O)c(C(=O)O)c2)n1 | > 53.6 µg/mL
27 | Cc1cc(OCCCn2ccnc2)ccc1[N+](=O)[O-].O=C(O)C(=O)O | 36.8 µg/mL
28 | Cc1[nH]c2ccccc2c1C(=O)CSC(=S)N1CCN(C)CC1 | 2.4 µg/mL (≈ 6.91 µM)
29 | O=C(/C=C/Nc1ccccc1O)c1ccco1 | 5.5 µg/mL (≈ 24 µM)
30 | CCOc1ccc(CSC(=N)N)cc1Cl.Cl | > 42.2 µg/mL
31 | CCc1cccc(C)c1NC(=O)CCNC(=O)c1cccc(C)c1 | > 48.7 µg/mL
32 | COc1ccc(NC(=O)CSc2ccc3c(c2)OCCO3)cc1S(N)(=O)=O | > 61.6 µg/mL
33 | Cc1ccc(Nc2nc(C)cc(C)c2C(N)=O)c(C)c1 | > 40.4 µg/mL
34 | CCCN(CC(=O)Nc1ccccc1C)C(=O)c1cc(C)oc1C | > 49.3 µg/mL
35 | O=C(NCCS(=O)(=O)N1CCCCC1)c1ccccc1 | > 44.5 µg/mL
36 | COc1ccccc1-c1cn(-c2ccccc2)c(=S)[nH]1 | 3.8 µg/mL (≈ 13.5 µM)
37 | Cc1ccc(OC(C)C(=O)OCC(=O)Nc2sccc2C(N)=O)cc1 (stereo not given) | > 54.4 µg/mL
38 | N#Cc1ccc(OCC(=O)Nc2ccncc2)cc1 | 36 µg/mL (≈ 142 µM)
39 | O=C(O)C1C2C=CC(C2)C1C(=O)NCc1cccc(Cl)c1 (stereo not given) | 43.3 µg/mL (≈ 142 µM)
40 | CCNC(=O)C1CCCN1S(=O)(=O)c1ccc2ccccc2c1 (stereo not given) | > 49.9 µg/mL

Row | Compound | solubility kinetic
41 | CCCc1nc2ccccc2c(=O)n1CC(=O)c1ccc(F)cc1 | 2.2 µg/mL (≈ 6.78 µM)
42 | CNc1nccc(-c2ccc(Cl)cc2)c1C#N | 1.5 µg/mL (≈ 6.16 µM)
43 | O=C(COC(=O)COc1ccccc1[N+](=O)[O-])NCc1ccc2c(c1)OCO2 | > 58.2 µg/mL
44 | CC(=O)N1CCN(c2ccc(C(N)=O)cc2[N+](=O)[O-])CC1 | > 43.8 µg/mL
45 | COc1ccc(CCC(=O)Nc2ncc(C)s2)cc1OC | 1.8 µg/mL (≈ 5.87 µM)
46 | COC(=O)Nc1ccc(S(=O)(=O)NC2CCCCC2)cc1 | 3.2 µg/mL (≈ 10.2 µM)
47 | CC(=O)N1C(C)(C)CC(=NOC(=O)c2ccc(C)cc2)CC1(C)C | > 49.6 µg/mL
48 | Cc1cc(Br)cc2c1N(C)C(=O)C2(c1ccc(O)cc1)c1ccc(O)cc1 | 7.4 µg/mL (≈ 17.4 µM)
49 | CCOC(=O)c1c(C)[nH]c(C(=O)COC(=O)CCNS(=O)(=O)c2ccc(NC(C)=O)cc2)c1C | 19.2 µg/mL (≈ 38.9 µM)
50 | Nc1ccccc1C(=O)N1CCc2ccccc21 | > 35.7 µg/mL
51 | O=C(CN1CCOCC1)Nc1ccc(F)cc1 | > 35.7 µg/mL
52 | Cc1cc(NC(=O)CN2C(=O)NC(C)(c3ccccc3Cl)C2=O)no1 (stereo not given) | 28 µg/mL (≈ 77.2 µM)
53 | CC(=O)C1=C(Nc2ccccc2)CC(C)(O)C(C(C)=O)C1c1ccccc1 (stereo not given) | 4.1 µg/mL (≈ 11.3 µM)
54 | Cl.N=C(N=C(N)N)N1CCOCC1 | > 31.1 µg/mL
55 | O=C1NC2=C(C(=O)CCC2)C(c2ccccc2Cl)N1 (stereo not given) | 39.1 µg/mL (≈ 141 µM)
56 | COc1ccccc1NC(=O)CCn1c(=S)oc2ccccc21 | 7 µg/mL (≈ 21.3 µM)
57 | COC(=O)[C@@H]1CC(O)CN1C(=O)C12CC3CC(CC(C3)C1)C2 (stereo not given in full) | > 46.1 µg/mL
58 | NC(=O)CCSC(=S)N1CCOCC1 | > 35.1 µg/mL
59 | COc1ccc(N(CCC#N)C(=O)/C(C#N)=C\c2cccs2)cc1 | > 50.6 µg/mL
60 | CCC(C(=O)NC1CC(C)(C)NC(C)(C)C1)c1ccccc1 (stereo not given) | > 45.4 µg/mL
